From patent US6689936B1, “Method for evaluating a compound for its effect on skin” (The General Hospital Corp., priority 1997, dated 2004)

What was measured:
[1] = system: human VEGF promoter driven GFP reporter; assay: Induction of epidermal GFP by topical TPA in VEGF-GFP transgenic mouse skin (fluorescence microscopy of skin biopsy sections); format: in vivo; details: single dose of 5 μg TPA in acetone, topical on back skin, biopsy after 12 hours; acetone alone showed only basal levels
Procedure: Tissue preparation for GFP detection and epimicroscopic observation solutions washed out or diffused GFP-derived fluorescence from the site of GFP expression. Ultimately, a freshly dissected, unfixed tissue block, was directly cut into 12 μm thick frozen sections using a cryostat. Epifluorescent microscopic observation was performed immediately after sectioning, without mounting medium or extended slide storage, using FITC/TRITC double excitation and an emission filter Chroma, *VT) to distinguish the GFP-derived fluorescent signal from tissue autofluorescence.
For induction of VEGF mRNA by TPA, a single dose of 5 μg TPA in acetone was topically applied to back skin of transgenic mice and skin biopsy samples were collected after 12 hours.
Induction of epidermal GFP by phorbolester application was also examined. […] This signal seemed to localize to the basoplateral surface of the epithelium rather than in either the keratinocyt cytosol or nucleus.

[2] = system: human VEGF promoter driven GFP reporter; assay: Direct confocal detection of GFP induction in intact skin of living hairless VEGF-GFP transgenic mice; format: in vivo; details: TPA applied to back skin of anaesthetized hairless VEGF-GFP mouse, after 12hrs, compared with acetone on the same individual
Procedure: To examine whole intact skin on living transgenic mouse with confocal microscope, hairless VEGF-GFP transgenic mice were anaesthetized with avertin by intraperitoneal injection. They were placed directly on the petri dish with dorsal position. TPA or acetone treatment was performed on the back skin same as described above marking treated area with an ink to ease the orientation of the skin. Sections or intact skin of the mice were analyzed using Leica DM IRBE inverted microscope and Leica TCS NT4D confocal microscope system with band pass filter 530/30 nm, detecting emission at wavelengths between 515-545 nm.
To test whether the induction of GFP is directly detected in the skin of a living VEGF-GFP transgenic mouse, acetone or TPA applied skin of the transgenic hairless mouse (same individual) was directly examined by confocal imaging under anaesthetized condition. […] X-Z confocal imaging confirmed that this signal was within the basal layer of the epidermis.

[3] = system: VEGF; details: topical application of phorbolesters; cited from earlier work

## CCCCCCCCCCCCCC(=O)O[C@@H]1[C@@H](C)[C@@]2(O)[C@@H](C=C(CO)C[C@]3(O)C(=O)C(C)=C[C@@H]23)[C@H]2C(C)(C)[C@]12OC(C)=O [TPA]
[1]
  GFP fluorescent signal in epidermis of transgenic skin: Accumulation of fluorescent signal was observed
[2]
  GFP fluorescence positive area in living epidermis (confocal imaging): increase of fluorescence positive area
[3]
  expression of VEGF in epidermal keratinocytes: up-regulated
